Source: patent US9908868B2, “Isoindolinone compounds as GPR119 modulators for the treatment of diabetes, obesity, dyslipidemia and related disorders” (SANOFI, priority 2014, dated 2018)

Target: T1, human GPR119 (Homo sapiens, UniProt Q8TDV5)
T1 construct: expressed in transfected cells
T1 sequence (Q8TDV5 1-335): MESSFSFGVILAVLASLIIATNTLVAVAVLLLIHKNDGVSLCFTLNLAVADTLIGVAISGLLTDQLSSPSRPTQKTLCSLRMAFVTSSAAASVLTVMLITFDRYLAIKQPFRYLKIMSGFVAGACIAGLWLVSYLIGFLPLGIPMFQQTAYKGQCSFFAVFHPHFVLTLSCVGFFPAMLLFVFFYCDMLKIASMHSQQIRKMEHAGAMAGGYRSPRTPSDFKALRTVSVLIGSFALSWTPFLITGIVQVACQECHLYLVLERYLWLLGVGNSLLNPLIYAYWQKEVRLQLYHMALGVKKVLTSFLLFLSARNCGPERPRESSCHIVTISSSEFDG
Assay: Functional cellular assay measuring GPR119-mediated cAMP release (HTRF) in HEK-293 cells stably expressing recombinant human GPR119
Assay type: cell-based
Conditions: cAMP response, cell line expressing human GPR119, 30 minutes at room temperature
Protocol: Functional Cellular Assays Measuring GPR119-Mediated cAMP Release
Compounds of the invention, which are agonists of GPR119, were characterized by functional assays measuring the cAMP response of HEK-293 cell lines stably expressing recombinant GPR119 from man, mouse or rat, or by using a hamster cell line HIT-T15 expressing GPR119 endogenously. The cAMP content was determined using a kit based on homogenous time-resolved fluorescence (HTRF) from Cisbio Corp. (cat. no. 62AM4PEC). For preparation, cells were split into T175 culture flasks and grown to near confluency in medium (DMEM/10% FCS for HEK-293 cells, and F-12K medium/10% horse serum/2.5% FCS for HIT-T15 cells, respectively). Medium was then removed and cells washed with PBS lacking calcium and magnesium ions, followed by proteinase treatment with accutase (Sigma-Aldrich, cat. no. A6964). Detached cells were washed and resuspended in assay buffer (1×HBSS; 20 mM HEPES, 0.1% BSA, 2 mM IBMX) and cellular density determined. They were then diluted to 400000 cells/mL and 25 μL-aliquots dispensed to the wells of 96-well plates. For measurement, 25 μL of test compound in assay buffer was added and incubated for 30 minutes at room temperature. After addition of HTRF reagents diluted in lysis buffer, the plates were incubated for 1 hour, followed by measuring the fluorescence ratio at 665 vs. 620 nm. Potency of the agonists was quantified by determining the concentrations that caused 50% of the maximal response/activation (EC50). See Table 7 for exemplary data obtained using the cell line expressing human GPR119.

EC50 | SMILES
1120 nM | C[S+]([O-])CN1Cc2ncc(N3CC[C@@H](Oc4ccc(C(=O)C5CC5)nc4)C3=O)cc2C1=O (stereo partly drawn) [Example 1-57, 3-[(3R)-3-[[6-(cyclopropanecarbonyl)-3-pyridyl]oxy]-2-oxo-pyrrolidin-1-yl]-6-(methylsulfinylmethyl)-7H-pyrrolo[3,4-b]pyridin-5-one]
106 nM | O=C(CN1Cc2ccc(N3CC[C@@H](Oc4ccc(OCC5CC5)nc4)C3=O)cc2C1=O)N1CCCC1 [Example 4-01, 6-[(3R)-3-[[6-(cyclopropylmethoxy)-3-pyridyl]oxy]-2-oxo-pyrrolidin-1-yl]-2-(2-oxo-2-pyrrolidin-1-yl-ethyl)isoindolin-1-one]
1050 nM | O=C(O)CN1Cc2c(F)cc(N3CC[C@@H](Oc4ccc(OCC5CC5)nc4)C3=O)cc2C1=O [Example 3-01, 2-[6-[(3R)-3-[[6-(cyclopropylmethoxy)-3-pyridyl]oxy]-2-oxo-pyrrolidin-1-yl]-4-fluoro-1-oxo-isoindolin-2-yl]acetic acid]
2030 nM | CC(C(=O)O)N1Cc2ccc(N3CC[C@@H](Oc4ccc(OCC5CC5)nc4)C3=O)cc2C1=O (stereo partly drawn) [Example 1-02, 2-[6-[(3R)-3-[[6-(cyclopropylmethoxy)-3-pyridyl]oxy]-2-oxo-pyrrolidin-1-yl]-1-oxo-isoindolin-2-yl]propanoic acid]
598 nM | O=C(CN1Cc2ccc(N3CC[C@@H](Oc4ccc(OCC5CC5)nc4)C3=O)cc2C1=O)N(CCO)CCO [Example 4-33, 2-[6-[(3R)-3-[[6-(cyclopropylmethoxy)-3-pyridyl]oxy]-2-oxo-pyrrolidin-1-yl]-1-oxo-isoindolin-2-yl]-N,N-bis(2-hydroxyethyl)acetamide]
57 nM | CSCN1Cc2ccc(N3CC[C@@H](Oc4ccc(OCC5CC5)nc4)C3=O)cc2C1=O [Example 1-51, 6-[(3R)-3-[[6-(cyclopropylmethoxy)-3-pyridyl]oxy]-2-oxo-pyrrolidin-1-yl]-2-(methylsulfanylmethyl)isoindolin-1-one]
441 nM | CN(C)C(=O)CN1Cc2ccc(N3CC[C@H](Oc4ccc(OCC5CC5)nc4)C3=O)cc2C1=O [Example 1-25, 2-[6-[(3S)-3-[[6-(cyclopropylmethoxy)-3-pyridyl]oxy]-2-oxo-pyrrolidin-1-yl]-1-oxo-isoindolin-2-yl]-N,N-dimethyl-acetamide]
2210 nM | CN(C)C(=O)CN1Cc2ccc(N3CC[C@@H](Oc4ccc(NC5=NC(=O)CS5)cc4)C3=O)cc2C1=O [Example 2-33, N,N-dimethyl-2-[1-oxo-6-[(3R)-2-oxo-3-[4-[(4-oxothiazol-2-yl)amino]phenoxy]pyrrolidin-1-yl]isoindolin-2-yl]acetamide]
82 nM | CN(C)C(=O)CN1Cc2ccc(N3CC[C@@H](Oc4ccc(OCC(F)(F)F)cc4)C3=O)cc2C1=O [Example 2-30, N,N-dimethyl-2-[1-oxo-6-[(3R)-2-oxo-3-[4-(2,2,2-trifluoroethoxy)phenoxy]pyrrolidin-1-yl]isoindolin-2-yl]acetamide]
66 nM | C[S+]([O-])CN1Cc2ccc(N3CC[C@@H](Oc4ccc(OCC(F)(F)F)nc4)C3=O)cc2C1=O (stereo partly drawn) [Example 1-54, 2-(methylsulfinylmethyl)-6-[(3R)-2-oxo-3-[[6-(2,2,2-trifluoroethoxy)-3-pyridyl]oxy]pyrrolidin-1-yl]isoindolin-1-one]
544 nM | O=C(O)CN1Cc2ccc(N3CC[C@@H](Oc4ccc(OCC(F)(F)F)nc4)C3=O)cc2C1=O [Example 3-05, 2-[1-oxo-6-[(3R)-2-oxo-3-[[6-(2,2,2-trifluoroethoxy)-3-pyridyl]oxy]pyrrolidin-1-yl]isoindolin-2-yl]acetic acid]
808 nM | CN(C)C(=O)CN1Cc2ccc(N3CC[C@@H](Oc4ccc(-c5cnccn5)cc4)C3=O)cc2C1=O [Example 2-38, N,N-dimethyl-2-[1-oxo-6-[(3R)-2-oxo-3-(4-pyrazin-2-ylphenoxy)pyrrolidin-1-yl]isoindolin-2-yl]acetamide]
51 nM | NC(=O)CN1Cc2ccc(N3CC[C@@H](Oc4ccc(OCC(F)(F)F)nc4)C3=O)cc2C1=O [Example 1-56, 2-[1-oxo-6-[(3R)-2-oxo-3-[[6-(2,2,2-trifluoroethoxy)-3-pyridyl]oxy]pyrrolidin-1-yl]isoindolin-2-yl]acetamide]
65 nM | CCOc1ccc(O[C@@H]2CCN(c3cc(F)c4c(c3)C(=O)N(CC(=O)OC)C4)C2=O)cn1 [Example 1-31, methyl 2-[6-[(3R)-3-[(6-ethoxy-3-pyridyl)oxy]-2-oxo-pyrrolidin-1-yl]-4-fluoro-1-oxo-isoindolin-2-yl]acetate]
2120 nM | CN(C)C(=O)CN1Cc2ccc(N3CC[C@@H](Oc4ccc(NCC5CC5)nc4)C3=O)cc2C1=O [Example 2-08, 2-[6-[(3R)-3-[[6-(cyclopropylmethylamino)-3-pyridyl]oxy]-2-oxo-pyrrolidin-1-yl]-1-oxo-isoindolin-2-yl]-N,N-dimethyl-acetamide]
749 nM | O=C(CN1Cc2ccc(N3CC[C@@H](Oc4ccc(OCC5CC5)nc4)C3=O)cc2C1=O)NCc1nnn[nH]1 [Example 4-30, 2-[6-[(3R)-3-[[6-(cyclopropylmethoxy)-3-pyridyl]oxy]-2-oxo-pyrrolidin-1-yl]-1-oxo-isoindolin-2-yl]-N-(1H-tetrazol-5-ylmethyl)acetamide]
65 nM | Cn1nnc(CN2Cc3c(F)cc(N4CC[C@@H](Oc5ccc(OCC6CC6)nc5)C4=O)cc3C2=O)n1 [Example 1-18, 6-[(3R)-3-[[6-(cyclopropylmethoxy)-3-pyridyl]oxy]-2-oxo-pyrrolidin-1-yl]-4-fluoro-2-[(2-methyltetrazol-5-yl)methyl]isoindolin-1-one]
21000 nM | CN(C)C(=O)CN1Cc2ccc(N3CC[C@@H](Oc4ccc(N5CCOCC5)cc4)C3=O)cc2C1=O [Example 2-24, N,N-dimethyl-2-[6-[(3R)-3-(4-morpholinophenoxy)-2-oxo-pyrrolidin-1-yl]-1-oxo-isoindolin-2-yl]acetamide]
251 nM | CN(C)C(=O)CN1Cc2ccc(N3CC[C@@H](Oc4ccc(C(=O)C5CC5)nc4)C3=O)cc2C1=O [Example 2-58, 2-[6-[(3R)-3-[[6-(cyclopropanecarbonyl)-3-pyridyl]oxy]-2-oxo-pyrrolidin-1-yl]-1-oxo-isoindolin-2-yl]-N,N-dimethyl-acetamide]
3390 nM | CN(C)C(=O)CN1Cc2ccc(N3CC[C@@H](Oc4ccc(-c5nnco5)cc4)C3=O)cc2C1=O [Example 2-29, N,N-dimethyl-2-[6-[(3R)-3-[4-(1,3,4-oxadiazol-2-yl)phenoxy]-2-oxo-pyrrolidin-1-yl]-1-oxo-isoindolin-2-yl]acetamide]
38 nM | CN(C)C(=O)CN1Cc2ccc(N3CC[C@@H](Oc4ccc(-c5ncc(F)s5)cc4)C3=O)cc2C1=O [Example 2-64, 2-[6-[(3R)-3-[4-(5-fluorothiazol-2-yl)phenoxy]-2-oxo-pyrrolidin-1-yl]-1-oxo-isoindolin-2-yl]-N,N-dimethyl-acetamide]
976 nM | CN(C)C(=O)CN1Cc2ncc(N3CC[C@@H](Oc4ccc(Oc5ccc(F)cc5)nc4)C3=O)cc2C1=O [Example 1-28, 2-[3-[(3R)-3-[[6-(4-fluorophenoxy)-3-pyridyl]oxy]-2-oxo-pyrrolidin-1-yl]-5-oxo-7H-pyrrolo[3,4-b]pyridin-6-yl]-N,N-dimethyl-acetamide]
